Measured values taken from patent publication US7556935B2 (Dana-Farber Cancer Institute, Inc., priority 2001, dated 2009).
Residues, ends and D or L forms follow the SMILES beside them. *: point of attachment. Cbz = O=C(OCc1ccccc1)*

Columns and labels:
[1] = system: 26S proteosome; assay: In vitro Ub-proteosome system, degradation of catalase; assay type: biochemical
From the text: As a control, degradation was inhibited when [g-S]ATP was substituted for ATP to prevent ubiquitination. […] Lactacystin, another proteosome inhibitor, was used to assess degradation of catalase in cells.

[2] = system: c-Abl; assay: c-Abl levels in the ER fraction, ER stress; assay type: cell-based
Protocol: (§1) Cells were treated with A23187 (Sigma) or Brefeldin A (Sigma).
(§2) Isolation of the ER fraction: Cells were washed with PBS, lysed in homogenization buffer (50 mM Tris-HCl, pH 8.0, 1 mM b-mercaptoethanol, 1 mM EDTA, 0.32 M sucrose and 0.1 mM PMSF), and then centrifuged at 5,000×g for 10 minutes. The supernatant was collected and centrifuged at 105,000×g for 1 hour. […] The resulting supernatant was used as the ER fraction.

[3] = system: grp78; assay: grp78 expression in the ER fraction, ER stress; assay type: cell-based
Protocol: as §1, §2

[4] = system: c-Abl; assay: c-Abl targeting to mitochondria under ER stress, immunofluorescence and immunoblot; assay type: cell-based
Protocol: as §1
Digital confocal immunofluorescence microscope: Cells grown on poly-D-lysine coated glass coverslips were fixed (3.7% formaldehyde in PBS, pH 7.4; 10 minutes), permeabilized (0.2% Triton X-100; 10 min), blocked for 30 minutes in media containing serum. After rinsing with PBS, immunostaining was performed by incubating the cells with 50 ng/slide of anti-c-Abl (K-12 rabbit polyclonal; Santa Cruz) and anti-grp-78 (C-20 goat polyclonal; Santa Cruz). For c-Abl and calreticulin staining, cells were incubated first with anti-c-Abl alone for 1 hour followed by blocking for 30 minutes in media containing serum. After washing with PBS, cells were then incubated with anti-calreticulin (rabbit polyclonal; StressGen). Finally, cells were incubated with a 1:250 dilution of CY-3 or Fluorescein (FITC)-conjugated anti-rabbit or anti-goat secondary antibodies (Jackson ImmunoResearch) for 1 hour. Mitochondria were stained with 0.006 ng/slide Mitotracker Green FM (Molecular Probes). Nuclei were stained with 4,6-diamino-2-phenylindole (DAPI; 1 mg/ml in PBS). Coverslips were mounted onto slides with 0.1 M Tris (pH 7.0) in 50% glycerol. Cells were visualized by digital confocal immunofluorescence and images were captured with cooled CCD camera mounted on a Zeiss Axioplan 2 microscope. Images were deconvolved using Slidebook software (Intelligent Imaging Innovations, Inc., Denver, Colo.).
(§3) The supernatant was collected and centrifuged at 10,000×g for 10 minutes. […] Protein concentration was determined by the Bio-Rad protein estimation kit.

[5] = system: c-Abl; assay: c-Abl levels in cytoplasmic and nuclear fractions, ER stress; assay type: cell-based
From the text: (§4) Isolation of cytoplasmic and nuclear fractions: The cytoplasmic and nuclear fractions were isolated as described in Example 1.

[6] = system: c-Abl; assay: Mitochondrial c-Abl kinase activity, GST-Crk(120-225) phosphorylation, ER stress; assay type: cell-based; conditions: anti-c-Abl immunoprecipitates of mitochondrial fraction
Protocol: as §3
Analysis of c-Abl activity: Cell lysates were prepared as described in Example 1 and subjected to immunoprecipitation with anti-c-Abl (K-12; Santa Cruz). The immunoprecipitates were resuspended in kinase buffer (see Example 1) containing […] of [g-32P]ATP and GST-Crk(120-225) or GST-Crk(120-212) for 15 minutes at 30° C. The reaction products were analyzed by SDS-PAGE and autoradiography.

[7] = system: cytochrome c; assay: Cytochrome c release in MEFs under ER stress; assay type: cell-based, mouse; conditions: wild-type MEFs
Protocol: as §1, §4

[8] = system: MEFs; assay: Apoptosis by sub-G1 DNA in MEFs under ER stress; assay type: cell-based, mouse
Protocol: Apoptosis assays: DNA content was assessed by staining ethanol-fixed cells with propidium iodide and monitoring by FACScan (Becton-Dickinson).

Row | SMILES | degradation of catalase [1] | c-Abl levels in the ER fraction [2] | expression of grp78 [3] | translocation of c-Abl to mitochondria, intracellular fluorescence ([4]; anti-c-Abl and Mitotracker signals) | c-Abl protein in the mitochondrial fraction, immunoblot ([4]; mitochondrial fraction) | c-Abl levels in the cytoplasm or nucleus [5] | mitochondrial c-Abl activity [6] | release of cytochrome c [7] | induction of apoptosis ([8]; c-Abl−/− cells) | apoptosis, sub-G1 DNA ([8]; wild-type cells)
1 | CC(C)C[C@@H](C=O)NC(=O)[C@H](CC(C)C)NC(=O)[C@H](CC(C)C)NC(=O)OCc1ccccc1 [MG132] (Cbz-Leu-Leu-Leu-aldehyde) | blocked |  |  |  |  |  |  |  |  | 
2 | CNc1ccc2oc(C[C@H]3O[C@@]4(CC[C@H]3C)O[C@H]([C@H](C)C(=O)c3ccc[nH]3)[C@H](C)C[C@H]4C)nc2c1C(=O)O [A23187] |  | time-dependent decrease | increases in expression of grp78 | translocation of c-Abl to mitochondria | time-dependent increase | little if any effect | increases in mitochondrial c-Abl activity | induces the release of cytochrome c | little effect | induction of sub-G1 DNA
